In the OligoGym collection:
Several values for one entry are separate records, joined by “and”; a condition that tells them apart may be missing. Equal values may be shown once. HELM strings list units from the 5' end as sugar, base in round brackets, then linkage (d deoxyribose, r ribose, m 2'-O-methyl, p phosphodiester). Methylation of C is not given here. [moe] = 2'-O-(2-methoxyethyl) (MOE); [cEt] = constrained ethyl (cEt); [sp] = phosphorothioate linkage

Molecular target: HBV
Settings: ASO

Substance | target mRNA inhibition (HepG2, 0.07 µM) | further results
RNA1{[moe](C)[sp].[moe](T)[sp].[moe](G)[sp].d(G)[sp].d(A)[sp].d(G)[sp].d(C)[sp].d(C)[sp].d(A)[sp].d(C)[sp].d(C)[sp].d(A)[sp].d(G)[sp].[cEt](C)[sp].[cEt](A)[sp].[cEt](G)}$$$$V2.0 | 60% | 
RNA1{[moe](C)[sp].[moe](C)[sp].[moe](G)[sp].[moe](C)[sp].[moe](A)[sp].d(G)[sp].d(T)[sp].d(A)[sp].d(T)[sp].d(G)[sp].d(G)[sp].d(A)[sp].d(T)[sp].d(C)[sp].[moe](G)[sp].[moe](G)}$$$$V2.0 | 75% and 71% | 
RNA1{[moe](A)[sp].[moe](A)[sp].[moe](C)[sp].[moe](C)[sp].[moe](A)[sp].[moe](C)[sp].d(T)[sp].d(G)[sp].d(A)[sp].d(A)[sp].d(C)[sp].d(A)[sp].d(A)[sp].d(A)[sp].d(T)[sp].[moe](G)[sp].[moe](G)}$$$$V2.0 | 60% and 45% | 
RNA1{[moe](T)[sp].[moe](G)[sp].[moe](A)[sp].d(G)[sp].d(G)[sp].d(C)[sp].d(A)[sp].d(T)[sp].d(A)[sp].d(G)[sp].d(C)[sp].d(A)[sp].[moe](G)[sp].[moe](C)[sp].[moe](A)[sp].[moe](G)}$$$$V2.0 | 60% and 49% | 
RNA1{[moe](A)[sp].[moe](A)[sp].[moe](T)[sp].d(T)[sp].d(T)[sp].d(A)[sp].d(T)[sp].d(G)[sp].d(C)[sp].d(C)[sp].d(T)[sp].d(A)[sp].[moe](C)[sp].[moe](A)[sp].[moe](G)[sp].[moe](C)}$$$$V2.0 | 52% and 49% | 
RNA1{[moe](A)[sp].[moe](G)[sp].[moe](T)[sp].[moe](T)[sp].[moe](C)[sp].d(C)[sp].d(G)[sp].d(C)[sp].d(A)[sp].d(G)[sp].d(T)[sp].d(A)[sp].d(T)[sp].d(G)[sp].[moe](G)[sp].[moe](A)[sp].[moe](T)}$$$$V2.0 | 56% and 49% | 
RNA1{[moe](A)[sp].[moe](C)[sp].[moe](C)[sp].[moe](A)[sp].d(C)[sp].d(T)[sp].d(G)[sp].d(A)[sp].d(A)[sp].d(C)[sp].d(A)[sp].d(A)[sp].d(A)[sp].[moe](T)[sp].[moe](G)[sp].[moe](G)}$$$$V2.0 | 54% and 65% | 
RNA1{[moe](T)[sp].[moe](T)[sp].[moe](C)[sp].[moe](C)[sp].[moe](G)[sp].d(C)[sp].d(A)[sp].d(G)[sp].d(T)[sp].d(A)[sp].d(T)[sp].d(G)[sp].d(G)[sp].d(A)[sp].[moe](T)[sp].[moe](C)[sp].[moe](G)}$$$$V2.0 | 65% and 59% | 
RNA1{[moe](C)[sp].[moe](A)[sp].[moe](A)[sp].[moe](T)[sp].[moe](T)[sp].[moe](T)[sp].d(A)[sp].d(T)[sp].d(G)[sp].d(C)[sp].d(C)[sp].d(T)[sp].d(A)[sp].d(C)[sp].d(A)[sp].[moe](G)[sp].[moe](C)}$$$$V2.0 | 26% and 22% | 
RNA1{[moe](G)[sp].[moe](G)[sp].[moe](C)[sp].d(A)[sp].d(T)[sp].d(A)[sp].d(G)[sp].d(C)[sp].d(A)[sp].d(G)[sp].d(C)[sp].d(A)[sp].d(G)[sp].[moe](G)[sp].[moe](A)[sp].[moe](T)[sp].[moe](G)}$$$$V2.0 |  | target mRNA inhibition (HepG2, 0.0092593 µM): 11%; target mRNA inhibition (HepG2, 0.009375 µM): 42%; target mRNA inhibition (HepG2, 0.01875 µM): 30%; target mRNA inhibition (HepG2, 0.0277778 µM): 28%; target mRNA inhibition (HepG2, 0.0375 µM): 43%; target mRNA inhibition (HepG2, 0.075 µM): 61%; target mRNA inhibition (HepG2, 0.0833333 µM): 60%; target mRNA inhibition (HepG2, 0.15 µM): 77%; target mRNA inhibition (HepG2, 0.25 µM): 77%; target mRNA inhibition (HepG2, 0.3 µM): 91%
RNA1{[moe](G)[sp].[moe](A)[sp].[moe](A)[sp].d(G)[sp].d(T)[sp].d(C)[sp].d(C)[sp].d(A)[sp].d(C)[sp].d(C)[sp].d(A)[sp].d(C)[sp].d(G)[sp].[cEt](A)[sp].[cEt](G)[sp].[cEt](T)}$$$$V2.0 | 34% and 33% | 
RNA1{[moe](T)[sp].[moe](G)[sp].d(C)[sp].d(A)[sp].d(G)[sp].d(A)[sp].d(G)[sp].d(G)[sp].d(T)[sp].d(G)[sp].d(A)[sp].[moe](A)[sp].[moe](G)[sp].[moe](C)[sp].[moe](G)[sp].[moe](A)}$$$$V2.0 | 46% and 36% | 
RNA1{[moe](G)[sp].[moe](A)[sp].[moe](G)[sp].[moe](G)[sp].d(C)[sp].d(A)[sp].d(T)[sp].d(A)[sp].d(G)[sp].d(C)[sp].d(A)[sp].d(G)[sp].d(C)[sp].[moe](A)[sp].[moe](G)[sp].[moe](G)}$$$$V2.0 | 45% and 50% | 
RNA1{[moe](G)[sp].[cEt](G)[sp].d(A)[sp].d(G)[sp].d(T)[sp].d(T)[sp].d(C)[sp].d(C)[sp].d(G)[sp].d(C)[sp].d(A)[sp].d(G)[sp].[cEt](T)[sp].[moe](A)[sp].[cEt](T)[sp].[moe](G)}$$$$V2.0 | 78% and 87% | target mRNA inhibition (HepG2, 0.0092593 µM): 12%; target mRNA inhibition (HepG2, 0.0277778 µM): 49%; target mRNA inhibition (HepG2, 0.0833333 µM): 79%; target mRNA inhibition (HepG2, 0.25 µM): 89%
RNA1{[moe](A)[sp].[cEt](C)[sp].[cEt](T)[sp].d(G)[sp].d(G)[sp].d(A)[sp].d(G)[sp].d(C)[sp].d(C)[sp].d(A)[sp].d(C)[sp].d(C)[sp].d(A)[sp].[cEt](G)[sp].[cEt](C)[sp].[moe](A)}$$$$V2.0 | 67% and 75% | 
RNA1{[moe](A)[sp].[moe](G)[sp].d(G)[sp].d(T)[sp].d(G)[sp].d(A)[sp].d(A)[sp].d(G)[sp].d(C)[sp].d(G)[sp].d(A)[sp].[moe](A)[sp].[moe](G)[sp].[moe](T)[sp].[moe](G)[sp].[moe](C)}$$$$V2.0 | 70% and 60% | 
RNA1{[moe](G)[sp].[moe](A)[sp].[moe](G)[sp].d(T)[sp].d(T)[sp].d(C)[sp].d(C)[sp].d(G)[sp].d(C)[sp].d(A)[sp].d(G)[sp].d(T)[sp].[moe](A)[sp].[moe](T)[sp].[moe](G)[sp].[moe](G)[sp].[moe](A)}$$$$V2.0 | 61% and 62% | 
RNA1{[moe](G)[sp].[moe](C)[sp].[moe](A)[sp].d(C)[sp].d(T)[sp].d(A)[sp].d(G)[sp].d(T)[sp].d(A)[sp].d(A)[sp].d(A)[sp].d(C)[sp].[moe](T)[sp].[moe](G)[sp].[moe](A)[sp].[moe](G)[sp].[moe](C)}$$$$V2.0 | 74% and 68% | 
RNA1{[moe](G)[sp].[moe](A)[sp].[moe](A)[sp].[moe](C)[sp].[moe](C)[sp].d(A)[sp].d(C)[sp].d(T)[sp].d(G)[sp].d(A)[sp].d(A)[sp].d(C)[sp].d(A)[sp].d(A)[sp].[moe](A)[sp].[moe](T)[sp].[moe](G)}$$$$V2.0 | 48% and 27% | 
RNA1{[moe](A)[sp].[moe](G)[sp].d(T)[sp].d(T)[sp].d(C)[sp].d(C)[sp].d(G)[sp].d(C)[sp].d(A)[sp].d(G)[sp].d(T)[sp].[moe](A)[sp].[moe](T)[sp].[moe](G)[sp].[moe](G)[sp].[moe](A)}$$$$V2.0 | 63% and 64% | 
RNA1{[moe](A)[sp].[moe](G)[sp].[moe](A)[sp].d(G)[sp].d(G)[sp].d(T)[sp].d(G)[sp].d(A)[sp].d(A)[sp].d(G)[sp].d(C)[sp].d(G)[sp].[moe](A)[sp].[moe](A)[sp].[moe](G)[sp].[moe](T)[sp].[moe](G)}$$$$V2.0 | 70% and 52% | 
RNA1{[moe](T)[sp].[cEt](T)[sp].[cEt](A)[sp].d(T)[sp].d(G)[sp].d(C)[sp].d(C)[sp].d(T)[sp].d(A)[sp].d(C)[sp].d(A)[sp].d(G)[sp].d(C)[sp].[cEt](C)[sp].[cEt](T)[sp].[moe](C)}$$$$V2.0 | 48% and 23% | 
RNA1{[moe](G)[sp].[cEt](A)[sp].[cEt](G)[sp].d(A)[sp].d(A)[sp].d(G)[sp].d(T)[sp].d(C)[sp].d(C)[sp].d(A)[sp].d(C)[sp].d(C)[sp].d(A)[sp].[cEt](C)[sp].[cEt](G)[sp].[moe](A)}$$$$V2.0 | 62% and 54% | 
RNA1{[moe](A)[sp].[moe](G)[sp].d(G)[sp].d(A)[sp].d(G)[sp].d(T)[sp].d(T)[sp].d(C)[sp].d(C)[sp].d(G)[sp].d(C)[sp].[moe](A)[sp].[moe](G)[sp].[moe](T)[sp].[moe](A)[sp].[moe](T)}$$$$V2.0 | 50% and 37% | 
RNA1{[moe](C)[sp].[moe](G)[sp].[moe](C)[sp].[moe](A)[sp].[moe](G)[sp].[moe](T)[sp].d(A)[sp].d(T)[sp].d(G)[sp].d(G)[sp].d(A)[sp].d(T)[sp].d(C)[sp].d(G)[sp].d(G)[sp].[moe](C)[sp].[moe](A)}$$$$V2.0 | 83% and 70% | target mRNA inhibition (HepG2, 0.0092593 µM): 10%; target mRNA inhibition (HepG2, 0.0277778 µM): 35%; target mRNA inhibition (HepG2, 0.0833333 µM): 44%; target mRNA inhibition (HepG2, 0.25 µM): 76%
RNA1{[moe](G)[sp].[moe](A)[sp].d(A)[sp].d(C)[sp].d(C)[sp].d(A)[sp].d(C)[sp].d(T)[sp].d(G)[sp].d(A)[sp].d(A)[sp].[moe](C)[sp].[moe](A)[sp].[moe](A)[sp].[moe](A)[sp].[moe](T)}$$$$V2.0 | 37% and 25% | 
RNA1{[moe](G)[sp].[cEt](A)[sp].d(G)[sp].d(A)[sp].d(A)[sp].d(G)[sp].d(T)[sp].d(C)[sp].d(C)[sp].d(A)[sp].d(C)[sp].d(C)[sp].[cEt](A)[sp].[moe](C)[sp].[cEt](G)[sp].[moe](A)}$$$$V2.0 | 34% and 43% | 
RNA1{[moe](T)[sp].[cEt](C)[sp].[cEt](C)[sp].d(G)[sp].d(C)[sp].d(A)[sp].d(G)[sp].d(T)[sp].d(A)[sp].d(T)[sp].d(G)[sp].d(G)[sp].d(A)[sp].[cEt](T)[sp].[cEt](C)[sp].[moe](G)}$$$$V2.0 | 79% and 76% | 
RNA1{[moe](C)[sp].[moe](T)[sp].[moe](G)[sp].[moe](G)[sp].d(A)[sp].d(G)[sp].d(C)[sp].d(C)[sp].d(A)[sp].d(C)[sp].d(C)[sp].d(A)[sp].d(G)[sp].[moe](C)[sp].[moe](A)[sp].[moe](G)}$$$$V2.0 | 57% and 60% | 
RNA1{[moe](T)[sp].[cEt](G)[sp].[cEt](A)[sp].d(G)[sp].d(A)[sp].d(G)[sp].d(A)[sp].d(A)[sp].d(G)[sp].d(T)[sp].d(C)[sp].d(C)[sp].d(A)[sp].[cEt](C)[sp].[cEt](C)[sp].[moe](A)}$$$$V2.0 | 53% and 49% | 
